Laboratory results taken from US8952042B2, “FXR (NR1H4) binding and activity modulating compounds” (Phenex Pharmaceuticals AG, priority 2009, dated 2015).

Key:
[1] = according to Akwabi-Ameyaw et al.; cited from earlier work
[2] = Pharmacokinetics in rat after intravenous administration 1 mg/kg; assay type: in vivo, Male Sprague Dawley Rat; conditions: rat
Protocol: Compounds were applied perorally by gavage at 5 mg/kg each and by i.v. Injection at 1 mg/kg each to male 12 weeks old C57BI/6J or Sprague Dawley rats and plasma concentrations of the test items were determined by LC-MS/MS after time points as indicated. In the case of Cynomolgus monkeys ([…]), the dose was adjusted to 12 mg/kg p.o., no i.v. injection was given (FIG. 1a, 1b and Table 2).
A solution of 2.5 mg/mL of each test item was produced by diluting them in the vehicle, 0.5% Hydroxypropyl-Methylcellulose (w/v) in 20 mM phosphate buffered saline pH 7.4. The solutions were stirred overnight at room temperature and heated to 40° C. for 10 minutes, resulting in fully homogenous suspension. The application was performed by administrating the solution perorally to the mice, with an application volume of 5 mL/kg. For each time point three mice or rats were used. In case of the Cynomolgus monkeys blood samples were obtained by repeated vein puncture. Blood samples were treated with L1-heparin during collection procedure and stored on ice until centrifugation at 645 g (5 min, 4° C.). Plasma was harvested and kept at −20° C. until being assayed. To 50 μL of plasma sample […] acetonitrile containing an internal standard was added. Samples were vigorously shaken and centrifuged for 10 minutes at 6000 g and 20° C. An aliquot of the particle-free supernatant was transferred to 200 μL sampler vials and subsequently subjected to LC MS/MS for quantification.

[3] = UV photostability, irradiation at 254 nm, 1H NMR; assay type: physicochemical
Protocol: The compounds of interest were dissolved using ethanol and their UV spectrum was analyzed to determine their λmax to establish an irradiation wavelength to be used in the study (see FIG. 2). The best wavelength for testing the UV stability of the —CH═CH— double bond was determined to be 254 nm. Further material of the compounds was then dissolved in deuterated ethanol and the ^1H NMRs (400 MHz) analyzed (T=0). Each sample was then recovered from the NMR tube and subjected to UV irradiation (254 nm) for 4 h, 15 h and 70 h. At the respective timepoints the individual samples were re-analyzed by ^1H NMR and the signal for the —CH═CH— protons evaluated to assess the percent of remaining intact double bond. Other changes in the chemical shift signals were also analyzed for further changes on the overall structure of the molecules.

[4] = attributed to trans-stilbene moiety, Akwabi-Ameyaw et al.; cited from earlier work
[5] = tested on: C57BLKS lepr^−/− db/db mice; assay: Lipid lowering effects in db/db mice; assay type: in vivo, mouse; conditions: 3 days of dosing at 2×5 mg/kg/day
Protocol: Compounds were applied perorally by gavage at 2×5 mg/kg each to C57BLKS lepr^−/− db/db mice starting at the age of 12 weeks. Animals have been set on a High-Fat Diet (ssniff EF R/M 12330 with 59% (kcal) fat from Ssniff, Soest, Germany) for two weeks prior to start of gavage. Baseline blood was taken by retroorbital bleeding. Blood samples were treated with L1-heparin during collection procedure and stored on ice until centrifugation at 645 g (5 min, 4° C.). Plasma was harvested and kept at −20° C. until being assayed. Total triglycerides and total cholesterol were measured in a 3 μL aliquot of plasma using commercial kits LabAssay™ Triglyceride (Code No 290-63701) and LabAssay™ Cholesterol (Code No 294-65801) from Wako Diagnostics (Neuss, Germany). […]

[6] = male, Sprague Dawley, plasma, iv, 1 mg/kg i.v.

AUC(0-inf) [2, 6]: 294 ng·h/mL
MRT last [2, 6]: 50.4 min
Tmax [2, 6]: 4.98 min
Vd [2, 6]: 5.98 L/kg
half-life [2, 6]: 73.2 min
concentration at 0.083 hr ([2]; male, Sprague Dawley, plasma, iv, 1 mg/kg i.v., 0.083 hr): 405 ng/mL
concentration at 0.25 hr ([2]; male, Sprague Dawley, plasma, iv, 1 mg/kg i.v., 0.25 hr): 208 ng/mL
concentration at 0.5 hr ([2]; male, Sprague Dawley, plasma, iv, 1 mg/kg i.v., 0.50 hr): 124 ng/mL
concentration at 1 hr ([2]; male, Sprague Dawley, plasma, iv, 1 mg/kg i.v., 1.00 hr): 68.3 ng/mL
concentration at 2 hr ([2]; male, Sprague Dawley, plasma, iv, 1 mg/kg i.v., 2.00 hr): 25 ng/mL
concentration at 4 hr ([2]; male, Sprague Dawley, plasma, iv, 1 mg/kg i.v., 4.00 hr): 15 ng/mL
Cmax ([2]; male, Sprague Dawley, plasma, 1 mg/kg i.v., footnote: Co for Intravenous): 565 ng/mL
AUC(0-t) ([2]; male, Sprague Dawley, plasma, iv, 1 mg/kg, read-out: #AUC(0-8)): 268 ng·h/mL
AUC Extrapolated ([2]; 1 mg/kg i.v.): 9.0%
CI ([2]; 1 mg/kg i.v.): 56.7083 mL/min/kg
behaviour in 1H NMR spectrum after prolonged UV irradiation ([3]; 70 h UV irradiation at 254 nm): major changes
compound still present in the mixture (1H NMR integration) ([3]; 70 h UV irradiation at 254 nm, deuterated ethanol): less than 30%
compound decayed ([3]; after 70 h UV irradiation at 254 nm): 70%
Compound: CC(C)c1onc(-c2c(Cl)cccc2Cl)c1COc1ccc(/C=C/c2cccc(C(=O)O)c2)c(Cl)c1 [GW4064, reference compound]
oral bioavailability [1]: low
plasma exposure [1]: low
plasma half life [1]: short
ultraviolet light stability [4]: instability
change in fasting blood glucose against vehicle [5]: −6%
